Data from ChEMBL document CHEMBL1201862, “PubChem BioAssay data set” (2004).
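Grown in 96-well plates, cells were treated for 48 hours with each compound at five concentrations. Insufficient inhibition: endpoint recorded as highest concentration tested. Abbreviation: GI50, concentration required for 50% inhibition of growth.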 Active and inactive are the calls of the source. No stated cut-off is given here; in the data, active = GI50 up to about 1.1 µM and inactive = higher.

Experiments:
Assay in all cases: NCI-60 cell line screen, 48 h
HT-29 = test system: HT-29
OVCAR-8 = test system: OVCAR-8
EKVX = test system: EKVX
SK-MEL-28 = test system: SK-MEL-28
CCRF-CEM = test system: CCRF-CEM
786-0 = test system: 786-0
NCI-H226 = test system: NCI-H226
UACC-257 = test system: UACC-257
NCI-H522 = test system: NCI-H522
SF-539 = test system: SF-539
ACHN = test system: ACHN
UO-31 = test system: UO-31
HL-60 = test system: HL-60
NCI-H23 = test system: NCI-H23
SF-268 = test system: SF-268
IGROV-1 = test system: IGROV-1

Measured: GI50

CN(C(=O)C12C3C4C1C1C4(C(=O)C45C6C7C4C4C5C6C74C)C3C12C)C(C)(C)C (stereo not given)
inactive: HT-29 17.5 µM | OVCAR-8 > 100 µM | EKVX > 100 µM | SK-MEL-28 > 100 µM | CCRF-CEM 32.1 µM | 786-0 67.9 µM | NCI-H226 72.3 µM | UACC-257 32.5 µM | NCI-H522 48.6 µM | SF-539 > 100 µM | ACHN 74.3 µM | UO-31 38.5 µM | HL-60 14.8 µM | NCI-H23 70.5 µM | SF-268 > 100 µM | IGROV-1 > 100 µM

COC(=O)C1CC2C=CC=CC(=O)C2(C)C1 (stereo not given)
inactive: HT-29 40 µM | OVCAR-8 41.1 µM | EKVX > 100 µM | CCRF-CEM 21.6 µM | 786-0 36.6 µM | NCI-H226 56.4 µM | UACC-257 38.7 µM | NCI-H522 > 10 µM | SF-539 > 100 µM | ACHN 59.6 µM | UO-31 > 100 µM | HL-60 25.8 µM | NCI-H23 44.3 µM | SF-268 37.3 µM | IGROV-1 > 100 µM

CC(C)(C)c1cc(C(=O)O)c(C(c2ccccc2)c2ccccc2C(=O)O)c(C(=O)O)c1 (stereo not given)
inactive: HT-29 > 100 µM | OVCAR-8 > 100 µM | EKVX > 100 µM | SK-MEL-28 > 100 µM | CCRF-CEM > 100 µM | 786-0 > 100 µM | NCI-H226 35 µM | UACC-257 > 100 µM | NCI-H522 2.52 µM | SF-539 > 100 µM | ACHN 20.7 µM | UO-31 > 100 µM | HL-60 > 100 µM | NCI-H23 > 100 µM | SF-268 > 100 µM

Nc1ccc(C(=O)N/C(=C\c2cccc([N+](=O)[O-])c2)c2nc3ccccc3[nH]2)cc1
inactive: HT-29 > 100 µM | OVCAR-8 33.1 µM | EKVX > 88.1 µM | SK-MEL-28 > 92.9 µM | CCRF-CEM > 100 µM | 786-0 28.4 µM | NCI-H226 > 100 µM | NCI-H522 36.6 µM | SF-539 22.8 µM | ACHN 40.6 µM | UO-31 20.6 µM | HL-60 > 81.7 µM | NCI-H23 > 75.9 µM | SF-268 21.8 µM | IGROV-1 28.5 µM

CC1(C)O[C@@H](CC/C=C/CO)[C@H](CC/C=C/CO)O1
inactive: HT-29 > 100 µM | OVCAR-8 > 100 µM | EKVX > 100 µM | SK-MEL-28 > 100 µM | CCRF-CEM > 100 µM | 786-0 > 100 µM | NCI-H226 > 100 µM | UACC-257 > 100 µM | NCI-H522 > 100 µM | SF-539 > 100 µM | ACHN > 100 µM | HL-60 63.8 µM | NCI-H23 > 100 µM | SF-268 > 100 µM | IGROV-1 > 100 µM

O=C(O)C(C(=O)C(=O)C(C(=O)O)c1ccc(Cl)cc1)c1ccc(Cl)cc1 (stereo not given)
inactive: HT-29 3.72 µM | OVCAR-8 2.25 µM | EKVX 3.27 µM | SK-MEL-28 4.54 µM | CCRF-CEM 2.34 µM | 786-0 4.2 µM | NCI-H226 4.58 µM | UACC-257 2.75 µM | NCI-H522 1.88 µM | SF-539 2.15 µM | ACHN 3.64 µM | UO-31 4.72 µM | HL-60 2.18 µM | NCI-H23 2 µM | SF-268 2.9 µM | IGROV-1 3.23 µM

C[Si](C)(C)CN1C(=O)c2ccccc2C1(O)c1ccccc1 (stereo not given)
inactive: HT-29 87.9 µM | OVCAR-8 > 100 µM | EKVX 91 µM | SK-MEL-28 > 100 µM | CCRF-CEM 66.4 µM | 786-0 > 100 µM | NCI-H226 > 100 µM | UACC-257 57.3 µM | NCI-H522 33.5 µM | SF-539 > 100 µM | ACHN 56.1 µM | UO-31 30.5 µM | HL-60 40.7 µM | NCI-H23 50.6 µM | SF-268 98.4 µM | IGROV-1 99.5 µM

CC(=O)C=C1Nc2ccccc2N1
inactive: HT-29 > 100 µM | OVCAR-8 > 100 µM | EKVX > 100 µM | SK-MEL-28 > 100 µM | CCRF-CEM > 100 µM | 786-0 > 100 µM | NCI-H226 > 100 µM | UACC-257 > 100 µM | NCI-H522 > 100 µM | SF-539 > 100 µM | ACHN > 100 µM | UO-31 > 100 µM | HL-60 > 100 µM | NCI-H23 > 100 µM | SF-268 > 100 µM | IGROV-1 > 100 µM

COc1cccc(C=O)c1C(=O)c1cc(O)ccc1O
inactive: HT-29 > 49.2 µM | OVCAR-8 20.3 µM | EKVX 18.5 µM | SK-MEL-28 34.1 µM | CCRF-CEM 3.91 µM | 786-0 > 100 µM | NCI-H226 > 100 µM | UACC-257 20.1 µM | NCI-H522 > 10 µM | SF-539 > 100 µM | ACHN 17.6 µM | UO-31 18.5 µM | HL-60 9.62 µM | NCI-H23 > 81.7 µM | SF-268 > 40 µM | IGROV-1 > 44.2 µM
